Laboratory results taken from ChEMBL document CHEMBL5465560, “Selectivity Literature for EUbOPEN Chemogenomic Library” (2024).

Assays:
[1] = molecular target: Protein-tyrosine kinase 6 (Homo sapiens, UniProt Q13882); test: Selectivity interaction (KinomeScan (DiscoverX)) EUB0000229b PTK6; conditions: at 10 µM
[2] = molecular target: T1, Serine/threonine-protein kinase DCLK2 (Homo sapiens) (UniProt Q8N568); test: Selectivity interaction (Upstate Kinase Profiler service (Millipore)) EUB0000056c DCLK2; conditions: at 1 µM
T1 sequence (whole entry): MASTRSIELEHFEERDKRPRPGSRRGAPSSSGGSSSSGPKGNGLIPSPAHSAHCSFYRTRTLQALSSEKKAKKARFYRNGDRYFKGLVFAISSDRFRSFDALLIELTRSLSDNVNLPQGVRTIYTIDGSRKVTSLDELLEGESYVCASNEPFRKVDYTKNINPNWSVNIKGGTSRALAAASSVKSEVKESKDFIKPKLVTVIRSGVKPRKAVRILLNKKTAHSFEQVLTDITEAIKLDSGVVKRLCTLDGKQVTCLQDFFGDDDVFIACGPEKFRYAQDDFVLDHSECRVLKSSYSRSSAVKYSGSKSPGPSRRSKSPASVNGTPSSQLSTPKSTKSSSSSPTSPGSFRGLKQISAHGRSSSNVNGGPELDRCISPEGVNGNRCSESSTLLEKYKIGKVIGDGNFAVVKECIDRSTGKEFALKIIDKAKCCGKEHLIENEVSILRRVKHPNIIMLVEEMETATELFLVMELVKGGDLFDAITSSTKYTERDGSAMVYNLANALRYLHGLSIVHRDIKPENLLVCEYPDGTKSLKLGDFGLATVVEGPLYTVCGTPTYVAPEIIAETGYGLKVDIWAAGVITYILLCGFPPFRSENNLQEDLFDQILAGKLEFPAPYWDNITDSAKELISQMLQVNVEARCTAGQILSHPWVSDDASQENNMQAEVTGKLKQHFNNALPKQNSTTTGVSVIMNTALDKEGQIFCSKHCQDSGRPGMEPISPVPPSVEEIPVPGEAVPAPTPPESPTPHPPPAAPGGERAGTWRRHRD

[3] = molecular target: Serine/threonine-protein kinase SIK2 (Homo sapiens) (UniProt Q9H0K1); test: Selectivity interaction (ProQinase) EUB0000171b SIK2
Sequence of Serine/threonine-protein kinase SIK2 (Homo sapiens) (Q9H0K1 whole entry, looked up, canonical isoform): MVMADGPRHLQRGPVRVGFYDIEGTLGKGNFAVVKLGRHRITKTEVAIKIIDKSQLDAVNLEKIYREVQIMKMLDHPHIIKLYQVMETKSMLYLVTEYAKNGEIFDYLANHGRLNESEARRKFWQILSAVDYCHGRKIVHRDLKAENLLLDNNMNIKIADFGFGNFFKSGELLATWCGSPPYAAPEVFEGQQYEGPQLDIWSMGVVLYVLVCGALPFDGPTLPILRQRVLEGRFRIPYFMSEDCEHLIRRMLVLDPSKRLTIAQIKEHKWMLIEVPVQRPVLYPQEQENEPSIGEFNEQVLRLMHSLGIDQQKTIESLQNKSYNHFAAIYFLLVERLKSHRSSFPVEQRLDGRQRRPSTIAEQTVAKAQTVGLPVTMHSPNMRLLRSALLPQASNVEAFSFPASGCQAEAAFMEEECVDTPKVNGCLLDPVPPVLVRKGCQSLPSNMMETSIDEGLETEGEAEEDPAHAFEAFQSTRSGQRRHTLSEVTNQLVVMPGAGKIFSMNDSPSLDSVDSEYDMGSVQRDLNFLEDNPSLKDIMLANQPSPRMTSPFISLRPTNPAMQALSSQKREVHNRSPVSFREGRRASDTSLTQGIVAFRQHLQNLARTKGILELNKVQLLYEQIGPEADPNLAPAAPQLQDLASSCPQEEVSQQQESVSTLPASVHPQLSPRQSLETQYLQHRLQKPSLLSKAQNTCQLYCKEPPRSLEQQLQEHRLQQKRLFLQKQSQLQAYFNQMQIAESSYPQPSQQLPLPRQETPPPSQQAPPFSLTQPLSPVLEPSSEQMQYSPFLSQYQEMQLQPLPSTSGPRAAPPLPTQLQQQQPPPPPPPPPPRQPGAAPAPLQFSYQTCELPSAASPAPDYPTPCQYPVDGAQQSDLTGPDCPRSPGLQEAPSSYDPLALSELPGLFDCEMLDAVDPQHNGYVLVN

[4] = molecular target: T2, Phosphorylase b kinase gamma catalytic chain, liver/testis isoform (Homo sapiens) (UniProt P15735); test: Selectivity interaction (KinomeScan (DiscoverX)) EUB0001079a PHKG2; conditions: at 1 µM
T2 sequence (whole entry): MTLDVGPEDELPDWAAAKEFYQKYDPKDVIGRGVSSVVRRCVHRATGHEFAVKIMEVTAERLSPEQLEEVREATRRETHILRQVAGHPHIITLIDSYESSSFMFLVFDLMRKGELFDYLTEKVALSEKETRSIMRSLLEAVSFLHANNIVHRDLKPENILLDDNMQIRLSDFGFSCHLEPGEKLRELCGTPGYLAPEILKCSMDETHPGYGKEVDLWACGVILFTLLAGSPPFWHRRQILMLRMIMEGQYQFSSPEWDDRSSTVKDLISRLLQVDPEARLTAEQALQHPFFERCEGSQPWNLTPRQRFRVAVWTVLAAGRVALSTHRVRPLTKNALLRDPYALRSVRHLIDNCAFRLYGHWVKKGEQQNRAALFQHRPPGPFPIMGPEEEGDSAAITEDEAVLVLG

Insulin receptor = Insulin receptor (Homo sapiens, UniProt P06213); conditions: at 10 µM
Sequence of Insulin receptor (P06213 28-758 limits assumed): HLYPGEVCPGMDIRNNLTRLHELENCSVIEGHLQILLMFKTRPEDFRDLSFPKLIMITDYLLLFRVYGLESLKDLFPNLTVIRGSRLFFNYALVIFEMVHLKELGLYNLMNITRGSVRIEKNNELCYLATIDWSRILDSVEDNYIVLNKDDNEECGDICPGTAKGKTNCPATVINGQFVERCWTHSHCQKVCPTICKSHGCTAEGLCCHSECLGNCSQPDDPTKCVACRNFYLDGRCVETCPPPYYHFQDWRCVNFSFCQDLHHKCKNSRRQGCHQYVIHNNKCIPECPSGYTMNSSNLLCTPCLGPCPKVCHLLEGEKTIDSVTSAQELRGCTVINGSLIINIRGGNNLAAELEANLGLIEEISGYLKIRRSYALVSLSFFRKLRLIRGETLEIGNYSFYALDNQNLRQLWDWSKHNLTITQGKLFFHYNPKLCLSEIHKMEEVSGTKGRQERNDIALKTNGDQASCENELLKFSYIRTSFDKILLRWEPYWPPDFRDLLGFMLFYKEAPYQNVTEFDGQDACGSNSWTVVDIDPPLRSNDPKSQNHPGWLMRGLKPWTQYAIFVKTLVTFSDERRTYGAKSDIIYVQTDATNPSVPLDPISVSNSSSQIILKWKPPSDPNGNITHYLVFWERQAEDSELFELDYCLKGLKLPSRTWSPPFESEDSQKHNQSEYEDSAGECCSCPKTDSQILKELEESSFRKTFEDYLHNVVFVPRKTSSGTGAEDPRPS
Sequence of Insulin receptor (P06213 763-1382 limits assumed): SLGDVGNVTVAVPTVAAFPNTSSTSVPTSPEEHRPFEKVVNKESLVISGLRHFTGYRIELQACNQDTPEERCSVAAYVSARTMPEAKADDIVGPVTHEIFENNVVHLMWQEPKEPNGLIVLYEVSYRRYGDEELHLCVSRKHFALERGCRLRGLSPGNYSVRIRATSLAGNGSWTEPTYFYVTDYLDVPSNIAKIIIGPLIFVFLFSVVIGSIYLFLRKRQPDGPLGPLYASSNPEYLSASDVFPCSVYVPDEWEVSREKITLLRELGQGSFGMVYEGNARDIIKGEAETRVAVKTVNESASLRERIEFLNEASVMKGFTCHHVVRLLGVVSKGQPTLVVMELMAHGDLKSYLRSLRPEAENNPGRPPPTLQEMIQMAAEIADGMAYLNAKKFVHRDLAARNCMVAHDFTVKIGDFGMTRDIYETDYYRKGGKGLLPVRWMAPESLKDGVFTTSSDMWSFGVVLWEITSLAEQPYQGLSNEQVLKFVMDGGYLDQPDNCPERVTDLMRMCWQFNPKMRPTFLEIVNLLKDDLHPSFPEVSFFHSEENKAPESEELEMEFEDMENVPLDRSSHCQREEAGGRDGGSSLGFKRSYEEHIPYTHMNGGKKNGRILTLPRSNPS

Aurora kinase B = Aurora kinase B (Homo sapiens, UniProt Q96GD4); test: Selectivity interaction (KinomeScan (DiscoverX)) EUB0000045b AURKB
Sequence of Aurora kinase B (Q96GD4 whole entry): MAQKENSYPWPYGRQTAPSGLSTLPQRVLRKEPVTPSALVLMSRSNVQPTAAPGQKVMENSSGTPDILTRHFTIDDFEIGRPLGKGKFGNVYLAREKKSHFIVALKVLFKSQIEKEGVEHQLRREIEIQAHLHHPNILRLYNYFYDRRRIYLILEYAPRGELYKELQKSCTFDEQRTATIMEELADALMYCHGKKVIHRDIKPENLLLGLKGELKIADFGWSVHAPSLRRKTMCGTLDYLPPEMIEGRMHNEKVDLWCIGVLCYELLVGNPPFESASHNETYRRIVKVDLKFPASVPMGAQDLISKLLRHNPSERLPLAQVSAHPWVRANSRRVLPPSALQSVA

[5] = molecular target: Mitogen-activated protein kinase 11 (Homo sapiens) (UniProt Q15759); test: Selectivity interaction (KinomeScan (DiscoverX)) EUB0000045b MAPK11
Sequence of Mitogen-activated protein kinase 11 (Homo sapiens) (Q15759 whole entry): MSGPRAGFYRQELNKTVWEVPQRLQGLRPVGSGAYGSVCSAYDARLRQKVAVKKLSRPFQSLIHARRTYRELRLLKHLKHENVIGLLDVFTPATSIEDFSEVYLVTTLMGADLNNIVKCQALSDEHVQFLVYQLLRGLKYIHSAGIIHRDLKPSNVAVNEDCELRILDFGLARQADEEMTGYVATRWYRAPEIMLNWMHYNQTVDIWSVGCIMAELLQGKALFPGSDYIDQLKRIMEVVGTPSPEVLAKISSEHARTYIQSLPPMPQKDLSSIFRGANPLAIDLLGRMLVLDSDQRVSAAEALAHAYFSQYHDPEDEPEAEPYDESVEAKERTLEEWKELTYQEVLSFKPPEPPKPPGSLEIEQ

[6] = molecular target: MAP kinase-interacting serine/threonine-protein kinase 1 (Homo sapiens) (UniProt Q9BUB5); test: Selectivity interaction (Ambit KINOMEscan and KiNATiv profiling in Jurkat cells) EUB0000090b MKNK1; assay type: cell-based; conditions: at 1 µM
Sequence of MAP kinase-interacting serine/threonine-protein kinase 1 (Homo sapiens) (Q9BUB5 whole entry, looked up): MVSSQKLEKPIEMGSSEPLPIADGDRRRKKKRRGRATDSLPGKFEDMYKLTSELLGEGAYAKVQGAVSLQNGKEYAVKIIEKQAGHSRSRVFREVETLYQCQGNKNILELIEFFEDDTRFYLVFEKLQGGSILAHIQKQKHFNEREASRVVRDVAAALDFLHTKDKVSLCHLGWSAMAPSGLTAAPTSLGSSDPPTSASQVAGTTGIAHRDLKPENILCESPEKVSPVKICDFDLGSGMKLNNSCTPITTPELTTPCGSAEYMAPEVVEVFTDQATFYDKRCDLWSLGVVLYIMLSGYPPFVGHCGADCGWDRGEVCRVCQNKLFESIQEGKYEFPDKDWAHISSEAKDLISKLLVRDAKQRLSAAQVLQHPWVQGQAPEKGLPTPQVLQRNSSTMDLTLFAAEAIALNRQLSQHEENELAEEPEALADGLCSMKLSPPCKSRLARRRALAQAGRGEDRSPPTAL

[7] = molecular target: T3, Tyrosine-protein kinase receptor TYRO3 (Homo sapiens) (UniProt Q06418); test: Selectivity interaction (Kinase screening (Nanosyn)) EUB0000604a TYRO3
T3 sequence (whole entry): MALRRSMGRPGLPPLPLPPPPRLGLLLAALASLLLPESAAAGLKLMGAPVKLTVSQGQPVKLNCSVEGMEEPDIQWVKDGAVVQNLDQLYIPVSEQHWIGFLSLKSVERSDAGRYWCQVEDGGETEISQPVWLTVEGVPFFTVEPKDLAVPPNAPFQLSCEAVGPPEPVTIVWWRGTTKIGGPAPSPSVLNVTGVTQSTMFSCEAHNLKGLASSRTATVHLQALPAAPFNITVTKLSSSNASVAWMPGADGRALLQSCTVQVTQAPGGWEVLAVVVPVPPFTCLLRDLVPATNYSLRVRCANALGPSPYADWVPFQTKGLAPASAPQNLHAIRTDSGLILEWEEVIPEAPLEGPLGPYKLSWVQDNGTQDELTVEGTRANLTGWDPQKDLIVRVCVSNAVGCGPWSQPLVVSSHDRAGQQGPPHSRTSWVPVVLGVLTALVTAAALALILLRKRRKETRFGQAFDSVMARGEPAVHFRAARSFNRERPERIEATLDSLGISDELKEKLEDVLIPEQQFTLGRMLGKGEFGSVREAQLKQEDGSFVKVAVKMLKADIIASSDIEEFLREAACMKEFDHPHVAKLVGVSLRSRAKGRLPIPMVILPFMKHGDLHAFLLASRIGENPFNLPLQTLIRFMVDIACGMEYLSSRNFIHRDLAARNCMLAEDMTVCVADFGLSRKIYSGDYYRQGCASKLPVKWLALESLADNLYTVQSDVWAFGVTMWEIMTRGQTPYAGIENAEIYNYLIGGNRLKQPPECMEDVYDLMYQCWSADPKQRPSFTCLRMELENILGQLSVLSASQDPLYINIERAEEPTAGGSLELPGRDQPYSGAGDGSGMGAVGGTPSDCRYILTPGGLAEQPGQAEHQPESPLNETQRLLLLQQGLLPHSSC

Sequence of Protein-tyrosine kinase 6 (Q13882 whole entry, looked up): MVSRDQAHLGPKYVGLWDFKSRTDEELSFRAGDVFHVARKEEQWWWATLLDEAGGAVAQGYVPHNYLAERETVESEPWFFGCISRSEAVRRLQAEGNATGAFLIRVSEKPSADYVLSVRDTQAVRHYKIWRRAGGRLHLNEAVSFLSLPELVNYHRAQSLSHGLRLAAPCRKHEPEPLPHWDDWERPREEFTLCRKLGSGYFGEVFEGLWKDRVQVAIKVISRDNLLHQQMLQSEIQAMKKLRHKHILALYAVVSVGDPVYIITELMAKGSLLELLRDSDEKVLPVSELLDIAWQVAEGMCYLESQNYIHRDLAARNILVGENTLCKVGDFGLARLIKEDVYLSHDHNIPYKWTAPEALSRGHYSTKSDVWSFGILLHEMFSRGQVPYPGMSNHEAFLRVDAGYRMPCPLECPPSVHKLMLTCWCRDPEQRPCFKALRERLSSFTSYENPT

## COc1cc(N(C)c2ccnc3ccc(C(F)(F)F)cc23)cc(OC)c1OC
[1]
  % binding: 94%

## Cc1ccc(-c2ccc3c(ccc4sc5c(c43)NC[C@@H](C)NC5=O)n2)cn1
[2]
  % of inhibition: -1%

## C=CC(=O)Nc1cccc(C(=O)Nc2ccc(Nc3cc(-c4[nH]c(SC)nc4C)ccn3)cc2)c1
[3]; at 1 µM
  % of control: 108%
[3]; at 5 µM
  % of control: 90%

## Nc1cnc(N2CCc3cc(S(=O)(=O)Nc4c(F)cc(Cl)cc4F)cc(N4CCCC4=O)c32)nc1 [TP-020n]
[4]
  % of control: 100%

## Cc1cc([C@@H](C)Nc2ccccc2C(=O)O)c2nc(N3CCOCC3)cc(=O)n2c1 [AZD-6482]
Insulin receptor
  % of control: 100%

## C=CC(=O)Nc1cc(-n2c(=O)ccc3cnc4ccc(-c5ccc(NS(C)(=O)=O)cc5)cc4c32)ccc1C
Aurora kinase B; at 1 µM
  % of control: 100%
Aurora kinase B; at 10 µM
  % of control: 75%
[5]; at 1 µM
  % of control: 90%
[5]; at 10 µM
  % of control: 95%

## CN(C)C/C=C/C(=O)Nc1ccc(C(=O)N2CCCC(Nc3ncc(Cl)c(-c4c[nH]c5ccccc45)n3)C2)cc1 (configuration not stated)
[6]
  % of control: 100%

## Cc1cnc(Nc2ccc(F)cc2Cl)nc1-c1c[nH]c(C(=O)N[C@H](CO)c2cccc(Cl)c2)c1
[7]
  % of inhibition: 0%
